Laboratory results taken from ChEMBL document CHEMBL3217538, “Antimycobacterial activity of spirooxindolo-pyrrolidine, pyrrolizine and pyrrolothiazole hybrids obtained by a three-component regio- and stereoselective 1,3-dipolar cycloaddition” (2011).
Converted amounts (≈) assume the structure as drawn.

Experiments:
[1] = system: Mycobacterium tuberculosis; assay: Antimycobacterial activity against Mycobacterium tuberculosis H37Rv by agar dilution method; assay type: functional
[2] = system: Mycobacterium tuberculosis; assay: Ratio of pyrazinamide MIC99 to compound MIC99 for Mycobacterium tuberculosis H37Rv; assay type: functional

Row | SMILES | MIC99 [1] [µM] | Ratio [2]
1 | COc1ccc(C2C([N+](=O)[O-])C(c3ccccc3)N[C@@]23C(=O)Nc2ccccc23)cc1 (stereo partly drawn) | > 60.2 | 
2 | O=C1Nc2ccccc2[C@]12NC(c1ccccc1)C([N+](=O)[O-])C2c1ccc(Cl)cc1 (stereo partly drawn) | 29.8 (≈ 12.5 µg/mL) | 1.7
3 | O=C1Nc2ccccc2[C@]12NC(c1ccccc1)C([N+](=O)[O-])C2c1cccc([N+](=O)[O-])c1 (stereo partly drawn) | 29 (≈ 12.5 µg/mL) | 1.75
4 | O=C1Nc2ccccc2[C@]12NC(c1ccccc1)C([N+](=O)[O-])C2c1cccc(Cl)c1 (stereo partly drawn) | 14.9 (≈ 6.26 µg/mL) | 3.4
5 | O=C1Nc2ccccc2[C@]12NC(c1ccccc1)C([N+](=O)[O-])C2c1ccc(F)cc1 (stereo partly drawn) | 31 (≈ 12.5 µg/mL) | 1.6
6 | O=C1Nc2ccccc2[C@]12NC(c1ccccc1)C([N+](=O)[O-])C2c1ccccc1 (stereo partly drawn) | > 64.9 | 
7 | Cc1ccc(C2C([N+](=O)[O-])C(c3ccccc3)N[C@@]23C(=O)Nc2ccccc23)cc1 (stereo partly drawn) | > 62.6 | 
8 | O=C1Nc2ccccc2[C@]12NC(c1ccccc1)C([N+](=O)[O-])C2c1ccc(Br)cc1 (stereo partly drawn) | 26.9 (≈ 12.5 µg/mL) | 1.9
9 | COc1ccc(OC)c(C2C([N+](=O)[O-])C(c3ccccc3)N[C@@]23C(=O)Nc2ccccc23)c1 (stereo partly drawn) | > 56.1 | 
10 | COc1ccc(C2C([N+](=O)[O-])C3CCCN3[C@@]23C(=O)Nc2ccccc23)cc1 (stereo partly drawn) | 65.9 (≈ 25 µg/mL) | 
11 | O=C1Nc2ccccc2[C@@]12C(c1ccc(Cl)cc1)C([N+](=O)[O-])C1CCCN12 (stereo partly drawn) | 32.6 (≈ 12.5 µg/mL) | 1.6
12 | O=C1Nc2ccccc2[C@@]12C(c1cccc([N+](=O)[O-])c1)C([N+](=O)[O-])C1CCCN12 (stereo partly drawn) | 63.4 (≈ 25 µg/mL) | 
13 | O=C1Nc2ccccc2[C@@]12C(c1cccc(Cl)c1)C([N+](=O)[O-])C1CCCN12 (stereo partly drawn) | 32.6 (≈ 12.5 µg/mL) | 1.6
14 | O=C1Nc2ccccc2[C@@]12C(c1ccc(F)cc1)C([N+](=O)[O-])C1CCCN12 (stereo partly drawn) | 68.1 (≈ 25 µg/mL) | 
15 | O=C1Nc2ccccc2[C@@]12C(c1ccccc1)C([N+](=O)[O-])C1CCCN12 (stereo partly drawn) | 71.6 (≈ 25 µg/mL) | 
16 | Cc1ccc(C2C([N+](=O)[O-])C3CCCN3[C@@]23C(=O)Nc2ccccc23)cc1 (stereo partly drawn) | 68.8 (≈ 25 µg/mL) | 
17 | O=C1Nc2ccccc2[C@@]12C(c1ccc(Br)cc1)C([N+](=O)[O-])C1CCCN12 (stereo partly drawn) | 58.4 (≈ 25 µg/mL) | 
18 | COc1ccc(OC)c(C2C([N+](=O)[O-])C3CCCN3[C@@]23C(=O)Nc2ccccc23)c1 (stereo partly drawn) | > 61.1 | 
19 | COc1cc(C2C([N+](=O)[O-])C3CCCN3[C@@]23C(=O)Nc2ccccc23)cc(OC)c1OC (stereo partly drawn) | > 56.9 | 
20 | COc1ccc(C2C([N+](=O)[O-])C3CSCN3[C@@]23C(=O)Nc2ccccc23)cc1 (stereo partly drawn) | 62.9 (≈ 25 µg/mL) | 
21 | O=C1Nc2ccccc2[C@@]12C(c1ccc(Cl)cc1)C([N+](=O)[O-])C1CSCN12 (stereo partly drawn) | 15.5 (≈ 6.23 µg/mL) | 3.3
22 | O=C1Nc2ccccc2[C@@]12C(c1cccc([N+](=O)[O-])c1)C([N+](=O)[O-])C1CSCN12 (stereo partly drawn) | 7.6 (≈ 3.13 µg/mL) | 6.7
23 | O=C1Nc2ccccc2[C@@]12C(c1cccc(Cl)c1)C([N+](=O)[O-])C1CSCN12 (stereo partly drawn) | 7.8 (≈ 3.13 µg/mL) | 6.5
24 | O=C1Nc2ccccc2[C@@]12C(c1ccc(F)cc1)C([N+](=O)[O-])C1CSCN12 (stereo partly drawn) | 8.2 (≈ 3.16 µg/mL) | 6.2
25 | CC[C@@H](CO)NCCN[C@@H](CC)CO [ETHAMBUTOL] | 7.6 (≈ 1.55 µg/mL) | 
26 | NNC(=O)c1ccncc1 [ISONIAZID] | 0.4 (≈ 0.0549 µg/mL) | 
27 | NC(=O)c1cnccn1 [PYRAZINAMIDE] | 50.1 (≈ 6.17 µg/mL) | 
